Measured values from patent US7507860B2 (Pfizer Inc., priority 2004, dated 2009).

Target: T1, androgen receptor (Homo sapiens, UniProt P10275)
T1 sequence (P10275 1-920 Q868H): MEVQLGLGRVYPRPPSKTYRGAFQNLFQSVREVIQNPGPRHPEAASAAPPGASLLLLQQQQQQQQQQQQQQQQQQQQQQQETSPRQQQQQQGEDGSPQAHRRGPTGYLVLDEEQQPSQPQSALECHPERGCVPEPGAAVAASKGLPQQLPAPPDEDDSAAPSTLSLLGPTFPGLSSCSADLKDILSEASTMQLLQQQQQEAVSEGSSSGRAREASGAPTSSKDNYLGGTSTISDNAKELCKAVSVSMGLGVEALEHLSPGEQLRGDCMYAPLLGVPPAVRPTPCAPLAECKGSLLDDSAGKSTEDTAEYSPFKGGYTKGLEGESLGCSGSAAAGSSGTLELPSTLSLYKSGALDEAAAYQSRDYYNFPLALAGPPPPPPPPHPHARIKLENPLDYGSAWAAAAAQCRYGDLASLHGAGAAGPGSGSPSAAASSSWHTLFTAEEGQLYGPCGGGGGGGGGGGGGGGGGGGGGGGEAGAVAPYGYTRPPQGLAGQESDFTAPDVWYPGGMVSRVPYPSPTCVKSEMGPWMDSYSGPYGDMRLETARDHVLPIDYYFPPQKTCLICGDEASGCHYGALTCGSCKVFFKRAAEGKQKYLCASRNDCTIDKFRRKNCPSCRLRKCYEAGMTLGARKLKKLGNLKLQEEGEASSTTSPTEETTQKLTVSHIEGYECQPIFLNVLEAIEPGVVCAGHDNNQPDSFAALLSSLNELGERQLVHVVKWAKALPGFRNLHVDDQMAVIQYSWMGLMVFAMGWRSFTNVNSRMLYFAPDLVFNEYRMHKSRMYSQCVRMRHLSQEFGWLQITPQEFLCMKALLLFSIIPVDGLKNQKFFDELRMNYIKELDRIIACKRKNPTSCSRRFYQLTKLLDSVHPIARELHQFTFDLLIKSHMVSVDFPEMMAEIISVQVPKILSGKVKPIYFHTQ
Experiment: AR antagonist cell assay (MDA-MB453-MMTV clone 54-19 luciferase reporter, 100 pM DHT)
Format: cell-based
Conditions: MDA-MB453-MMTV clone 54-19, inhibition of 100 pM DHT induction, 17 hr; mean of multiple tests; read-out: AR Cell IC50
In short: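 MDA-MB453 cells stably carrying an MMTV-ARE firefly luciferase reporter were plated overnight at 10,000/well in phenol-red-free, charcoal-stripped serum medium. Cells were stimulated with 100 pM DHT (final) for 17 hr at 37 °C, and AR antagonism was read as luciferase signal; values are means of multiple tests.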

Compound: CC(C)CC(Oc1ccc(C#N)c(C(F)(F)F)c1)C(=O)NCc1ccccc1 (centres unmarked) [Example 1, 2-(4-Cyano-3-trifluoromethyl-phenoxy)-4-methyl-pentanoic acid benzylamide]
- IC50: 201 nM

Compound: CCCC(Oc1ccc(C#N)c(C(F)(F)F)c1)C(=O)NCc1ccccc1 (centres unmarked) [Example 4, 2-(4-Cyano-3-trifluoromethyl-phenoxy)-pentanoic acid benzylamide]
- IC50: 57 nM
